Consider five molecules from paper PMC11915811, “Conformational activation and disulfide exchange in HIV-1 Env induce cell-free lytic/fusogenic transformation and enhance infection” (Journal of Virology, 2025).

Entries after “also recorded” stand apart in the source; their conditions may differ. Like-named read-outs stand apart in the source and are kept apart here.

One experiment has as its target gp120. Particulars: read-out: Kd, gp120 binding affinity, cited from earlier work.
Experiment [1] concerns JRFL pseudovirus. As to the kind of experiment: Cell-free lysis of JRFL pseudovirus, p24 release detected by ELISA. Particulars: 2 h at 37°C; for Lysis of JRFL pseudovirus in conjunction with Trx1 (in words): 1,000 nM compound + serial dilutions of Trx1; for p24 leakage from JRFL pseudovirus with thiol compound in place of Trx1: 1,000 nM KR13b + 1,000 nM free cysteine or glutathione, mean of three independent experiments. A general note: ELISA stands for enzyme-linked immunosorbent assay.

Experiment [2] deals with JRFL pseudovirus. In kind it is cell-based, HIV-1. As to conditions: 1,000 nM Trx1; HOS CD4+ CCR5+ cells; normalized to pseudovirus + PBS.
In a further experiment the test system is BaL.01 pseudovirus. In kind it is cell-based, HIV-1. Particulars: 1,000 nM Trx1; HOS CD4+ CCR5+ cells; normalized to pseudovirus + PBS.
Another experiment relates to HXB2 pseudovirus. In kind it is cell-based, HIV-1. Particulars: 1,000 nM Trx1; HOS CD4+ CCR5+ cells; normalized to pseudovirus + PBS.
The test system of a further experiment is VSV pseudovirus. Format: cell-based, vesicular stomatitis virus.

The Kd is the free concentration of one partner at which half of the binding sites on the other are occupied at equilibrium, for simple one-to-one binding.

Regarding `COc1ccnc2[nH]cc(C(=O)C(=O)N3CCN(C(=O)c4ccccc4)C[C@H]3C)c12` [BMS-806], the Kd at gp120 (SPA (scintillation proximity assay)) was 21.1 ± 1.9 nM. Besides, the “Lysis of JRFL pseudovirus in conjunction with Trx1 (in words)” value in the experiment with JRFL pseudovirus [1] was “did not”.

In the case of `CNCc1ccc2c(c1)C[C@H](CN=C(N)N)[C@H]2NC(=O)C(=O)Nc1ccc(Cl)c(F)c1.O=C(O)C(F)(F)F.O=C(O)C(F)(F)F` [BNM-III-170], at gp120 (ITC), the equilibrium dissociation constant (Kd) is 47 nM. In addition, the “Lysis of JRFL pseudovirus in conjunction with Trx1 (in words)” value with JRFL pseudovirus [1] is listed as “did cause lysis”.

In the case of `N[C@@H](CS)C(=O)O` [cysteine], the “p24 leakage from JRFL pseudovirus with thiol compound in place of Trx1” value in the experiment with JRFL pseudovirus [1] was “Neither thiol compound caused leakage of p24 above background”.

For `N[C@@H](CCC(=O)N[C@@H](CS)C(=O)NCC(=O)O)C(=O)O` [glutathione], in the experiment on JRFL pseudovirus [1], the “p24 leakage from JRFL pseudovirus with thiol compound in place of Trx1” value is listed as “Neither thiol compound caused leakage of p24 above background”.

B1: Trx1: recombinant human thioredoxin-1, purchased from Cayman Chemical (protein)
chain: MVKQIESKTAFQEALDAAGDKLVVVDFSATWCGPCKMIKPFFHSLSEKYSNVIFLEVDVDDCQDVASECEVKCMPTFQFFKKGQKVGEFSGANKEKLEATINELV
Take B1: the “Enhancement of pseudovirus infectivity (RLU) by exogenous Trx1” value with JRFL pseudovirus [2], with BaL.01 pseudovirus and in the experiment on HXB2 pseudovirus was “at least doubling its RLU values” throughout. Moreover, the “Enhancement of VSV infection by Trx1” value with VSV pseudovirus is on record as 10–40%. The “p24 release / lysis of JRFL pseudovirus by the component alone (control)” value in the experiment with JRFL pseudovirus [1] (serial dilutions of the single component, no partner) is given as “no significant p24 release; also recorded: negligible lysis”. In addition, in the experiment on JRFL pseudovirus [1] (virus preincubated with 1,000 nM of labelled component for 0–30 min, then 1,000 nM of the other (KR13b or Trx1) added, versus no preincubation), the “Effect of preincubating virus with one component on lysis (order of addition)” value is “significant decrease in lytic effect at 10 min”.
